Test results: patent publication US7264932B2, “Nuclease inhibitor cocktail” (Applera Corporation, priority 1999, dated 2007)

What was measured:
Type in all cases: biochemical
[1] = target: E. coli RNase 1 (Escherichia coli, UniProt P21338); assay: Radiolabeled RNA probe degradation gel assay, RNase 1; conditions: 1 U RNase 1, 30 minute incubation at 37° C.
Protocol: (§1) The activity of anti-nuclease antibodies is readily determined using radiolabeled RNA or DNA to detect the inhibition of RNase or DNase by the anti-nuclease antibodies. In general, the nuclease and anti-nuclease antibody are separately diluted, typically in 1× assay buffer. Assay buffer, nuclease and anti-nuclease antibody are then added to 0.5 ml microfuge tubes. For assaying anti-RNase activity, a mixture comprising assay buffer, RNA and radiolabeled RNA is added to the microfuge tubes. The “MIX” of assay buffer, RNA and radiolabeled RNA is generally prepared by combining 10× Assay Buffer (0.9 μl/rxn), 5 mg/ml yeast RNA (0.4 μl/rxn), ^32-β actin RNA (1 μl/rxn), and nuclease-free H2O (6.7 μl/rxn) for a total of 9 μl/rxn. The tubes are vortexed and microfuged, then incubated at 37° C. for 30 minutes. After incubation, a portion of the tube contents is removed and placed into gel loading buffer. Then the tube contents and the gel loading buffer are mixed, and the combination is loaded onto a gel, typically a 8M urea/5% acrylamide gel, which is exposed to film. […]
(§2) The activity of an anti-nuclease cocktail is readily determined using radiolabeled RNA or DNA to detect the inhibition of nuclease by anti-nuclease antibodies in the anti-nuclease cocktail. […]

[2] = target: T1, RNase A (Bos taurus, UniProt P61823); assay: Radiolabeled RNA probe degradation gel assay, RNase A; conditions: DTT up to 250 mM, at 37° C.
T1 sequence (P61823 27-150): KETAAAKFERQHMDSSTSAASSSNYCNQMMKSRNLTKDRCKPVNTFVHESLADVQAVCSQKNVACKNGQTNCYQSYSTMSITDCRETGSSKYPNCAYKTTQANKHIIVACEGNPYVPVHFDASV
Protocol: The activity of an anti-nuclease cocktail is readily determined using radiolabeled RNA or DNA to detect the inhibition of nuclease by anti-nuclease antibodies in the anti-nuclease cocktail. […] Assay buffer, nuclease and an anti-nuclease cocktail are then added to 0.5 ml microfuge tubes. A mixture comprising assay buffer, RNA or DNA and radiolabeled RNA or DNA is added to the microfuge tubes, and the tubes are vortexed and microfuged. After incubation of the tubes at 37° C. for 30 minutes, a portion of the tube contents is removed and placed into gel loading buffer. After mixing, the combination is loaded onto a gel, typically a 8M urea/5% acrylamide gel, which is exposed to film.
Radiolabeled RNA was used to detect the inhibition of RNase A, RNase T1, and RNase 1 by specific antibodies.
The “MIX” was prepared by combining 10× Assay Buffer (0.9 μl/rxn), 5 mg/ml yeast RNA (0.4 μl/rxn), ^32P-labeled β actin RNA (1 μl/rxn), and nuclease-free H2O (6.7 μl/rxn), for a total of 9 μl/rxn.
1× Assay Buffer was added first. Then Specific RNase Cocktail, Specific Anti-RNase Cocktail and MIX were added. The tubes are vortexed and microfuged, then incubated at 37° C. for 30 min (Table 9).
At the end of the incubation time, 10 μl of solution was removed from the tube and placed into 10 μl Gel Loading Buffer II. The combination was mixed thoroughly and loaded onto a 8M urea/5% acrylamide gel. The gel was exposed to film for 30 min. at −80° C. with an intensifying screen.

[3] = target: T2, RNase T1 (Aspergillus oryzae, UniProt P00651); assay: Radiolabeled RNA probe degradation gel assay, RNase T1; conditions: 0.15 U RNase T1
T2 sequence (P00651 27-130): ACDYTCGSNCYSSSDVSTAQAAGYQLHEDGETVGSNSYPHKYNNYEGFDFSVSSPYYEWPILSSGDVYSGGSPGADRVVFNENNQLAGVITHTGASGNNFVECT
Protocol: as §1, §2

Chain of E. coli RNase 1 (P21338 24-268): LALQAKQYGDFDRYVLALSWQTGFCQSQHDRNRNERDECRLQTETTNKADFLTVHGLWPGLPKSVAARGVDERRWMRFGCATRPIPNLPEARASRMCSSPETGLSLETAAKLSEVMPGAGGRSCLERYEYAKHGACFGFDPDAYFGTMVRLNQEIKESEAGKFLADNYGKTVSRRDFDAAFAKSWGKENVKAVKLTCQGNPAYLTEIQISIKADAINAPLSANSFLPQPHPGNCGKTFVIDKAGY

## O[C@H](CS)[C@H](O)CS (racemic) [DTT, dithiothreitol]
[1]
  concentration that inhibited RNase 1: 1–3 mM DTT inhibited 1 U RNase 1 during 30 minute incubation at 37 °C
[2]
  inhibition of RNase A activity: At 37° C., DTT up to 250 mM did not inhibit RNase Aactivity.
[3]
  concentration that inhibited RNase T1: 5–10 mM DTT inhibited 0.15 U RNase T1
